Assay results taken from patent US20040077634A1, “Treatment of diseases characterized by excessive or insufficient cell death” (priority 2001, published 2004).

How the values were obtained:
[1] = test system: WEHI-S fibrosarcoma cells; assay: TNF-induced caspase-independent cell death of WEHI-S fibrosarcoma cells; format: cell-based; details: 50-10 μM
[2] = test system: MCF-casp3 cells; assay: TNF-induced cell death of MCF-casp3 cells
Experimental: (§1) The ability of compound f to inhibit cell death was examined in MCF-neo and MCF-casp3 cells. […] To analyse the mechanism of the action of compound f in alive cells, MCF-casp3 cells were treated with TNF (5 ng/ml) in the presence of 50 μM compound f and the activity of caspase-3-like proteases was measured by a DEVDase enzyme assay.

[3] = biological target: T1, recombinant caspase-3 (Homo sapiens, UniProt P42574); assay: Recombinant caspase-3 activity, cleavage of DEVD-AFC; format: biochemical; details: 25 to 100 μM; DEVD-AFC substrate
T1 sequence (P42574 29-175 limits assumed): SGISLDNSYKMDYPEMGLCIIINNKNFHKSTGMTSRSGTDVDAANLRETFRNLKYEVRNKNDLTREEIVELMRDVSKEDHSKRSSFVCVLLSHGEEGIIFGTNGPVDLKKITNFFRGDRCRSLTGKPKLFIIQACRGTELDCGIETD
T1 sequence (P42574 176-277 limits assumed): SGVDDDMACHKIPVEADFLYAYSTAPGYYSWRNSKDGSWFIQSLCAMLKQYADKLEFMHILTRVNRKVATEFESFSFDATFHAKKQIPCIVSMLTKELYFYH
Experimental: To test if compounds a, f, and g were specific caspase inhibitors, recombinant caspase-3 and caspase-9 were incubated with the three compounds and the enzymatic activities of caspases were monitored by analysing the cleavage of the caspase-3 substrate DEVD-AFC or the caspase-9 substrate LEHD-AFC, respectively.

[4] = test system: caspase-3-like proteases in MCF-casp3 cells; assay: TNF-induced DEVDase activity in MCF-casp3 cells; format: cell-based; details: TNF 5 ng/ml, 50 μM
Experimental: as §1

[5] = test system: DEVDase (caspase-3-like protease); assay: Inhibition of DEVDase in cytochrome c/dATP-activated Hela cytosolic extract (method 1); format: biochemical
Experimental: Hela cells are grown in large petri dishes until subconfluency. Cells are then harvested and washed in PBS. The cell pellet is resuspended in equal volumes of ice-cold isotonic lysisbuffer (SCA; 20 mM Hepes-KOH pH 7.5, 10 mM KCl, 1.5 mM MgCl2, 1 mM EDTA, 1 mM EGTA, 250 mM sucrose, 1 mM DTT, 10 μg/ml aprotinin, 1 μg/ml leupeptin, 1 μg/ml pepstatin A, 100 μg/ml peta-block), incubated on ice for 30 min and lysed by approx. 30 strokes of a dounce homogenizer. The lysate is then centrifuged at 750 g for 10 min, and the supernatant thereof at 10,000 g for 10 min and at 20,000 g for 30 min. The clarified supernatant is removed carefully and stored in aliquots at −80° C. Activation of endogene caspases is induced by addition of 1 mM dATP and 1 μM horse heart cytochrome c to cytosolic extract (protein concentration; 5-10 mg/ml) in the presence of DEVD-AFC and the compound (final concentration 100 μM). Activated DEVD'ases (AFC release) is measured by fluorometry in 96-well plates at 37° C. After end measurements 2× LSB-Mechaptoethanol are added to the samples for assessment of caspase processing by immunoblot analysis. Percent inhibition is calculated as follows: [formula]

With O=C(Nc1cccc(C(F)(F)F)c1)Nc1cc(Cl)ccc1C(=O)O [Compound f, [N-(2-Carboxy-5-chlorophenyl)-N′-(3-trifluoromethylphenyl)]urea] the “inhibition of the TNF-induced cell death” value [1] was “No inhibition”, the “cell death induced by TNF” value ([2]; 1 ng/ml TNF, 50 μM) was “completely blocked” and the “protection against TNF-induced cell death” value ([2]; 5 ng/ml TNF, 50 μM) was “protection was still significant”. For the same molecule, the “inhibition of TNF-induced cell death” value ([2]; 10 ng/ml TNF) was “no inhibition”, the “inhibition of recombinant caspase-3 activity” value [3] was “failed to inhibit” and the “TNF-induced DEVDase activity” value [4] was “significantly reduced”. The “inhibition of the DEVDase activity (dose dependence)” value ([5]; cell extracts stimulated with Cc/dATP) was “dose-dependent inhibition” and the “% Inhibition” value ([5]; compound final concentration 100 μM, 1 mM dATP and 1 μM cytochrome c, DEVD-AFC) was 94%.
